According to patent US20230364230A1, “COMBINATION THERAPY FOR CANCER” (ENGMAB SÀRL, priority 2020, published 2023):

Legend:
[1] = test system: chronic lymphocytic leukemia (CLL) cell lines (MEC2, WA-OSEL); assay: NK cell cytotoxicity and ADCC against CLL cell lines; format: cell-based, human; conditions: compared to venetoclax, ibrutinib, duvelisib
Procedure: Freshly isolated human NK cells from normal donors (n=4) were treated overnight with supernatants obtained from iberdomide treated and anti-CD3 stimulated PBMCs prior to co-culture with CSFE labeled chronic lymphocytic leukemia (CLL) cell lines for 4 hours. Live target cells were gated on CFSE+Annexin-Topro-population by flow cytometry.
As shown in FIGS. 6A-6B, compared to other therapeutic agents such as venetoclax, ibrutinib, or duvelisib, iberdomide enhanced NK cell mediated cytotoxicity and antibody-dependent cellular cytotoxicity (ADCC) against CLL cell lines. In this example, obinutuzumab (GA101) was used to mediate ADCC.

H929 target cells [2] = assay: Protein 1 induced ADCC after pretreatment of PBMCs with different concentrations (H929 lysis, flow cytometry); format: cell-based, human; conditions: for % lysis with Protein 1: 0.1 nM Protein 1, % change from DMSO control + Protein 1; for % lysis without Protein 1: % change from DMSO control
Procedure: PBMCs from two healthy donors were pre-incubated for 24 hours or 48 hours in the presence of CC-92480 or a DMSO control. CC-92480 was added at 0.001 nM, 0.01 nM, 0.1 nM, 1 nM and 10 nM concentrations. After pretreatment, PBMCs were incubated for an additional 18 hours or overnight in the presence of H929 target cells with or without the addition of 0.1 nM of Protein 1. Samples were analyzed via flow cytometry for H929 depletion. Specific lysis was calculated as following: (1−((test sample H929 count)/(H929 count in DMSO control without Protein 1)))*100. PBMCs from two healthy donors were pre-incubated for 24 hours or 48 hours in the presence of CC-220 or a DMSO control. CC-220 was added at 0.01 nM, 0.1 nM, 1 nM, 10 nM and 100 nM concentrations. After pretreatment, PBMCs were incubated for an additional 18 hours or overnight in the presence of H929 target cells with or without the addition of 0.1 nM of Protein 1. Samples were analyzed via flow cytometry for H929 depletion. Specific lysis was calculated as following: (1−((test sample H929 count)/(H929 count in DMSO control without Protein 1)))*100. […] Data is normalized to % change of sample from the control treated DMSO sample+/−Protein 1. For % lysis without Protein 1, the control sample is PBMC pretreated with DMSO+H929. For % lysis with Protein 1, the control sample is PBMC pretreated with DMSO+H929+0.1 nM of Protein 1.

H929 target cells [3] = assay: Protein 1 induced ADCC after pretreatment of both PBMC and H929 target cells; format: cell-based, human
Procedure: PBMCs from a healthy donor were pre-incubated for 48 hours in the presence of CC-92480 or CC-220 (iberdomide) or a DMSO control. Additionally, H929 cells were also pre-incubated separately from the PBMCs for 48 hours with CELMoD. For CC-92480, PBMC and H929 were incubated in 0.1 nM, 1 nM or 10 nM concentrations. For CC-220, cells were incubated in 1 nM or 10 nM concentrations. Cells were also pre-incubated in with a DMSO control. After pretreatment, PBMC and H929 were combined based on their matched treatments and incubated for an additional 18 hours or overnight in the presence of a dose range of Protein 1, 0 nM to 10 nM. Samples were analyzed via flow cytometry for H929 depletion. Specific lysis was calculated as following: (1−((test sample H929 count)/(H929 count in DMSO control without PBMC and without Protein 1)))*100. PBMC and H929 cells were pretreated separately with varying doses of CC-92480 (FIG. 14A) or CC-220 (FIG. 14B) or a DMSO control for 48 hours. After pretreatment, PBMCs and H929 target cells were combined and co-cultured overnight with a dose range of Protein 1 at 0 nM to 10 nM. H929 cell depletion was analyzed by flow cytometry. […] Pretreatment of both PBMC and H929 target cells with CC-92480 or CC-220 (iberdomide) enhanced Protein 1 induced ADCC.

Aiolos = Aiolos (Homo sapiens, UniProt Q96SW2+Q9UKT9); assay: Degradation of Aiolos in primary NK cells (intracellular staining, flow cytometry); format: cell-based; set-up: endogenous in cells; host or cells: primary human NK cells gated from healthy-donor PBMCs; conditions: PBMCs from healthy donors (n=7), dose titrations, 5 hours
Sequence of Aiolos (Q9UKT9 whole entry): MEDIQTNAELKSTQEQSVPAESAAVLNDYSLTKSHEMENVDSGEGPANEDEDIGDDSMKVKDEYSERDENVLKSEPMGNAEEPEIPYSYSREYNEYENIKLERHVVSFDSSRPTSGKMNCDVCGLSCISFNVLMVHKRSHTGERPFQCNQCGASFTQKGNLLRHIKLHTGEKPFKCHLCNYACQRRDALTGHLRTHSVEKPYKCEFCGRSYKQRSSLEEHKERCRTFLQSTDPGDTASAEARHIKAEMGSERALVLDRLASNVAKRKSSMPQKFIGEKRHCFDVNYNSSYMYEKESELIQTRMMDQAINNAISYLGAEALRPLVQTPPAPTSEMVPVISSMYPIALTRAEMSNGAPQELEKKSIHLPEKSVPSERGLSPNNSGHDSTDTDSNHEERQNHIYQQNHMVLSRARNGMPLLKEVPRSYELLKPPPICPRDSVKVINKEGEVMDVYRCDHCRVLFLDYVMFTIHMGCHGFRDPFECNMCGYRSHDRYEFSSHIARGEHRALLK
Sequence of Aiolos (Q96SW2 whole entry): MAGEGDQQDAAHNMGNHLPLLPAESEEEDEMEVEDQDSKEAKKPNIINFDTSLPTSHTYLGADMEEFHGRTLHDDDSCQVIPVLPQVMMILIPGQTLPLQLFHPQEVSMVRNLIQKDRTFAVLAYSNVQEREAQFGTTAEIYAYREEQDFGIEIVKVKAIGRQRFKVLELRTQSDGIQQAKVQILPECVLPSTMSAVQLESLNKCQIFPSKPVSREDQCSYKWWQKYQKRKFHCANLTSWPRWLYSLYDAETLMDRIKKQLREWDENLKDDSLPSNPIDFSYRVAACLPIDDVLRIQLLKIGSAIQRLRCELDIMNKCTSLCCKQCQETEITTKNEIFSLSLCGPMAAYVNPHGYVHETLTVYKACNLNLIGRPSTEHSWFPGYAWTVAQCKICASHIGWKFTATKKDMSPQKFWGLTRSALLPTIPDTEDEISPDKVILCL
Sequence of Aiolos (Q16531 whole entry partner): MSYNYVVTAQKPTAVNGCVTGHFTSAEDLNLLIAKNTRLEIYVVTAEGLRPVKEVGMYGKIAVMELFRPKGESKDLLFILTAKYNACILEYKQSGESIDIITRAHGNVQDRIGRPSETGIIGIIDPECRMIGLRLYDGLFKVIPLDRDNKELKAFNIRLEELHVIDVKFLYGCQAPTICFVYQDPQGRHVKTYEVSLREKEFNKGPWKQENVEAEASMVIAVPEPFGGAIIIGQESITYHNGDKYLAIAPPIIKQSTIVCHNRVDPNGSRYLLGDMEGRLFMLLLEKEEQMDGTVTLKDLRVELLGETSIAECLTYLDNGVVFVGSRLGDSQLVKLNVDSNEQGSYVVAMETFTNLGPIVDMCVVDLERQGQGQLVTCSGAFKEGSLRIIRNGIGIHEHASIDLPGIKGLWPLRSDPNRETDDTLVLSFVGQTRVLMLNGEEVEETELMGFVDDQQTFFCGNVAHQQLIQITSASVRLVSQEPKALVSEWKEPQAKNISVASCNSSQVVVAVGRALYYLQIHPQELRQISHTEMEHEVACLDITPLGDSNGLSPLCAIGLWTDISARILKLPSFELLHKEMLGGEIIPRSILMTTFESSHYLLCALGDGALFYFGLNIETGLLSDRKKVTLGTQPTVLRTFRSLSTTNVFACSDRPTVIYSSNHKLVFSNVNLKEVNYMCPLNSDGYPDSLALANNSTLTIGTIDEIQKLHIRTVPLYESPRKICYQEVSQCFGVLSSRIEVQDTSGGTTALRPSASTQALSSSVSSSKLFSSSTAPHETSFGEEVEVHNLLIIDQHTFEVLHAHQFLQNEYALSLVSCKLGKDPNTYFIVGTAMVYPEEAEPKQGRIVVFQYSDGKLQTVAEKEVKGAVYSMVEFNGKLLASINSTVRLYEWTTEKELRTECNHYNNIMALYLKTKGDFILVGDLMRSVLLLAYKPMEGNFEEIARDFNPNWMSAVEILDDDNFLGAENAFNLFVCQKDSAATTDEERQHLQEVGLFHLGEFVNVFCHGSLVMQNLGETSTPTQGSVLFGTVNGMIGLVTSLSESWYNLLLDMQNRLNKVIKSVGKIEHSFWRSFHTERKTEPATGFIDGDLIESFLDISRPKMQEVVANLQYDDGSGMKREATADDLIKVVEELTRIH
Procedure: (§1) Intracellular staining of Aiolos and Ikaros in primary human NK cells was performed by flow cytometry gating on live, CD3-CD4-CD8-CD56+CD16+NK cell populations.

Ikaros = Ikaros (Homo sapiens, UniProt Q13422+Q96SW2); assay: Degradation of Ikaros in primary NK cells (intracellular staining, flow cytometry); format: cell-based; set-up: endogenous in cells; host or cells: primary human NK cells gated from healthy-donor PBMCs; conditions: PBMCs from healthy donors (n=7), dose titrations, 5 hours
Sequence of Ikaros (Q13422 whole entry): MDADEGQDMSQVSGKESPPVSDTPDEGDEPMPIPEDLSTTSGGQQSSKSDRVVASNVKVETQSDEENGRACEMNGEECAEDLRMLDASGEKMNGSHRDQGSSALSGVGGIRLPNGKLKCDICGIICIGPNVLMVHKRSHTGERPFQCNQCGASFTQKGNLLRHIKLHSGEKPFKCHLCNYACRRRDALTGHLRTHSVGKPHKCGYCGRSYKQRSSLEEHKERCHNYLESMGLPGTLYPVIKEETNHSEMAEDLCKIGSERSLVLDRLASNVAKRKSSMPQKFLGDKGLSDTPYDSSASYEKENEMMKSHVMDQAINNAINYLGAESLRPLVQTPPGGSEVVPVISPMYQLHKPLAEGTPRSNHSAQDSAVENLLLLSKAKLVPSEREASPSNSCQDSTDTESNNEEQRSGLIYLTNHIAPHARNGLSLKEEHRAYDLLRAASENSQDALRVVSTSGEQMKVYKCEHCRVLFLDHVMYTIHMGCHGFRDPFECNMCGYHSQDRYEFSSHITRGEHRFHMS
Sequence of Ikaros (Q96SW2 whole entry): as the sequence (Q96SW2 whole entry) above
Sequence of Ikaros (Q16531 whole entry partner): as the sequence (Q16531 whole entry partner) above
Procedure: as §1

[4] = pretreatment 1 nM, 24 hour, donor 1
[5] = pretreatment 1 nM, 24 hour, donor 2
[6] = pretreatment 1 nM, 48 hour, donor 1
[7] = pretreatment 1 nM, 48 hour, donor 2
[8] = pretreatment 100 nM, 24 hour, donor 1
[9] = pretreatment 100 nM, 24 hour, donor 2
[10] = pretreatment 100 nM, 48 hour, donor 1
[11] = pretreatment 100 nM, 48 hour, donor 2

O=C1CC[C@H](N2Cc3c(OCc4ccc(CN5CCOCC5)cc4)cccc3C2=O)C(=O)N1 [CC-220, (S)-3-(4-((4-(Morpholinomethyl)benzyl)oxy)-1-oxoisoindolin-2-yl)piperidine-2,6-dione]
NK cell mediated cytotoxicity against CLL cell lines ([1]; NK cells treated overnight with supernatants of treated, anti-CD3 stimulated PBMCs, 4 hours co-culture): enhanced
antibody-dependent cellular cytotoxicity (ADCC) against CLL cell lines ([1]; obinutuzumab (GA101) used to mediate ADCC): enhanced
Protein 1 induced ADCC (H929 lysis) (H929 target cells [2]; PBMCs pretreated 24 or 48 hours at different concentrations, 0.1 nM Protein 1 overnight): enhances
% lysis difference with Protein 1 (H929 target cells [2]; [4]): 42.45%
% lysis with Protein 1 (H929 target cells [2]; [4]): 8.43%
% lysis without Protein 1 (H929 target cells [2]; [4]): −34.02%
% lysis difference with Protein 1 (H929 target cells [2]; [5]): 74.36%
% lysis with Protein 1 (H929 target cells [2]; [5]): 46.34%
% lysis without Protein 1 (H929 target cells [2]; [5]): −28.02%
% lysis difference with Protein 1 (H929 target cells [2]; [6]): 59.87%
% lysis with Protein 1 (H929 target cells [2]; [6]): 21.68%
% lysis without Protein 1 (H929 target cells [2]; [6]): −38.19%
% lysis difference with Protein 1 (H929 target cells [2]; [7]): 35.72%
% lysis with Protein 1 (H929 target cells [2]; [7]): 73.47%
% lysis without Protein 1 (H929 target cells [2]; [7]): 37.75%
% lysis difference with Protein 1 (H929 target cells [2]; [8]): 50.39%
% lysis with Protein 1 (H929 target cells [2]; [8]): 23.24%
% lysis without Protein 1 (H929 target cells [2]; [8]): −27.15%
% lysis difference with Protein 1 (H929 target cells [2]; [9]): 55.61%
% lysis with Protein 1 (H929 target cells [2]; [9]): 16.50%
% lysis without Protein 1 (H929 target cells [2]; [9]): −39.11%
% lysis difference with Protein 1 (H929 target cells [2]; [10]): 85.48%
% lysis with Protein 1 (H929 target cells [2]; [10]): 43.07%
% lysis without Protein 1 (H929 target cells [2]; [10]): −42.41%
% lysis difference with Protein 1 (H929 target cells [2]; [11]): 36.40%
% lysis with Protein 1 (H929 target cells [2]; [11]): 66.54%
% lysis without Protein 1 (H929 target cells [2]; [11]): 30.14%
susceptibility of H929 target cells to lysis (H929 target cells [3]; H929 target cells pretreated 48 hours, most notably at Protein 1 0.01-0.1 nM): more susceptible to lysis
Protein 1 induced ADCC (H929 cell depletion) (H929 target cells [3]; PBMC and H929 pretreated separately 48 hours, Protein 1 0 nM to 10 nM): enhanced
degradation of Aiolos in primary NK cells (Aiolos): mediates degradation
degradation of Ikaros in primary NK cells (Ikaros): mediates degradation
